Reference: ChEMBL document CHEMBL1201862, “PubChem BioAssay data set” (2004)
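1) Cells in 96-well plates. 2) Compound, 48 h, 5 concentrations. 3) Linear interpolation between surrounding doses. 4) Unreached endpoint = highest concentration. GI50 marks 50% less growth.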 Activity calls are given as the source filed them. Rule as the data show it: active = GI50 up to about 1.1 µM and inactive = higher.

Assays:
Assay in all cases: NCI anticancer screen, dose series, 48 h
PC-3 = test system: PC-3
SF-268 = test system: SF-268
TK-10 = test system: TK-10
IGROV-1 = test system: IGROV-1
OVCAR-3 = test system: OVCAR-3
MCF7 = test system: MCF7
HCT-116 = test system: HCT-116
SNB-19 = test system: SNB-19
K562 = test system: K562
SF-295 = test system: SF-295
Hs-578T = test system: Hs-578T
U-251 = test system: U-251
SK-MEL-5 = test system: SK-MEL-5
SK-MEL-2 = test system: SK-MEL-2
HT-29 = test system: HT-29
RXF 393 = test system: RXF 393
BT-549 = test system: BT-549
HOP-62 = test system: HOP-62
HL-60 = test system: HL-60

Measured: GI50

Nc1nc(Cl)cc(NCCO)n1
inactive: PC-3 > 100 µM | SF-268 > 100 µM | TK-10 > 100 µM | IGROV-1 > 100 µM | OVCAR-3 > 100 µM | MCF7 > 100 µM | HCT-116 > 100 µM | SNB-19 > 100 µM | K562 > 100 µM | SF-295 > 100 µM | Hs-578T > 100 µM | U-251 > 100 µM | SK-MEL-5 > 100 µM | SK-MEL-2 > 100 µM | HT-29 > 100 µM | RXF 393 > 100 µM | BT-549 > 100 µM | HOP-62 > 100 µM

C[Si](C)(C)C1=C2C(=O)c3ccccc3C(=O)C2=C([Si](C)(C)C)[C@@H]2CCCC[C@H]12
inactive: PC-3 > 100 µM | TK-10 > 100 µM | IGROV-1 > 100 µM | OVCAR-3 > 100 µM | MCF7 > 100 µM | HCT-116 > 100 µM | SNB-19 > 100 µM | K562 > 100 µM | SF-295 > 100 µM | U-251 > 100 µM | SK-MEL-5 > 100 µM | SK-MEL-2 > 100 µM | HL-60 > 100 µM | RXF 393 > 100 µM | BT-549 > 100 µM

c1ccc(C(=NCCC2CNc3ccccc32)c2ccccc2)cc1 (stereo not given)
inactive: PC-3 > 100 µM | IGROV-1 89.3 µM | OVCAR-3 > 100 µM | MCF7 > 100 µM | HCT-116 > 100 µM | SNB-19 > 100 µM | K562 > 100 µM | SF-295 > 100 µM | Hs-578T > 100 µM | U-251 > 100 µM | SK-MEL-5 > 100 µM | SK-MEL-2 > 100 µM | HT-29 > 100 µM | RXF 393 > 100 µM | BT-549 > 100 µM | HOP-62 > 100 µM

N#Cc1sc2c(c1O)c(=O)n(-c1ccccc1)c(=S)n2-c1ccccc1
inactive: SF-268 > 100 µM | TK-10 > 100 µM | IGROV-1 > 100 µM | OVCAR-3 > 100 µM | MCF7 > 100 µM | SNB-19 > 100 µM | K562 89.1 µM | SF-295 > 100 µM | Hs-578T > 100 µM | U-251 > 100 µM | SK-MEL-5 > 100 µM | SK-MEL-2 > 100 µM | HT-29 > 100 µM | HL-60 > 100 µM | RXF 393 > 100 µM | BT-549 > 100 µM

C[C@]12CC[C@H](O)CC1=CC[C@@H]1[C@@H]2CC[C@]2(C)NC(=O)/C(=C\c3ccccc3)C[C@@H]12
inactive: PC-3 13.3 µM | SF-268 15.5 µM | TK-10 28.2 µM | IGROV-1 15.9 µM | OVCAR-3 11.9 µM | MCF7 14.4 µM | HCT-116 14.2 µM | SNB-19 14.7 µM | K562 39.6 µM | SF-295 16.5 µM | U-251 14.1 µM | SK-MEL-5 12.9 µM | SK-MEL-2 12.6 µM | HT-29 14.3 µM | RXF 393 13.5 µM | BT-549 17 µM | HOP-62 13.5 µM

COc1ccc(Cc2nc3cc(C(F)(F)F)ccc3n2CCCN(C)C)cc1
inactive: PC-3 22.9 µM | SF-268 16.8 µM | TK-10 20.7 µM | IGROV-1 28 µM | OVCAR-3 17.3 µM | MCF7 17.9 µM | SNB-19 27.6 µM | K562 14.4 µM | SF-295 19.7 µM | Hs-578T 17.5 µM | U-251 17.1 µM | SK-MEL-5 16.2 µM | SK-MEL-2 19 µM | HT-29 18.5 µM | HL-60 11.8 µM | RXF 393 14.7 µM | BT-549 15.3 µM | HOP-62 26 µM

O=C1/C(=C\c2cccc(Oc3ccccc3)c2)S(=O)(=O)C(c2ccccc2)N1c1cc(Cl)ccc1Cl (stereo not given)
inactive: PC-3 32.4 µM | SF-268 18.5 µM | TK-10 22.3 µM | IGROV-1 15.6 µM | OVCAR-3 20.1 µM | MCF7 4.13 µM | HCT-116 4.6 µM | SNB-19 16 µM | K562 3.74 µM | SF-295 14.2 µM | Hs-578T 33.7 µM | U-251 16.5 µM | SK-MEL-5 17 µM | SK-MEL-2 28.2 µM | HT-29 5.96 µM | RXF 393 15.5 µM | BT-549 18 µM | HOP-62 19.4 µM

COC(=O)Nc1nc(=O)c2cc(OC)c(OC)cc2[nH]1
inactive: PC-3 3.29 µM | SF-268 > 100 µM | TK-10 > 100 µM | IGROV-1 15.2 µM | OVCAR-3 > 100 µM | MCF7 6.15 µM | HCT-116 5.2 µM | SNB-19 36.4 µM | K562 3.59 µM | SF-295 4.66 µM | Hs-578T 66.1 µM | U-251 61.5 µM | SK-MEL-5 6.35 µM | SK-MEL-2 > 100 µM | HT-29 6.68 µM | HL-60 7.46 µM | BT-549 15.3 µM | HOP-62 44.6 µM

CNc1ccc([N+](=O)[O-])cc1C(=O)N1CCC[C@H]1CO
inactive: PC-3 > 100 µM | SF-268 > 100 µM | TK-10 > 100 µM | IGROV-1 > 100 µM | MCF7 > 100 µM | HCT-116 > 100 µM | SNB-19 > 100 µM | K562 > 100 µM | SF-295 > 100 µM | Hs-578T > 100 µM | U-251 > 100 µM | SK-MEL-5 > 100 µM | SK-MEL-2 > 100 µM | HT-29 > 100 µM | HL-60 > 100 µM | RXF 393 > 100 µM | BT-549 > 100 µM | HOP-62 > 100 µM

CC1=C(C(=O)N[C@@H](CC(C)C)C(=O)O)N2C(=O)[C@@H](NC(=O)[C@@H](N)Cc3ccccc3)[C@H]2SC1
inactive: PC-3 > 100 µM | SF-268 > 100 µM | TK-10 > 100 µM | IGROV-1 > 100 µM | OVCAR-3 > 100 µM | MCF7 > 100 µM | SNB-19 > 100 µM | K562 > 100 µM | SF-295 > 100 µM | Hs-578T > 100 µM | U-251 > 100 µM | SK-MEL-5 > 100 µM | SK-MEL-2 > 100 µM | HL-60 > 100 µM | RXF 393 > 100 µM | BT-549 > 100 µM

O=C1CC2[C@@H](N3CCCC3)CCC(N1Cc1ccccc1)C2(O)O (stereo not given in full)
inactive: PC-3 > 100 µM | SF-268 > 100 µM | TK-10 > 100 µM | IGROV-1 > 100 µM | OVCAR-3 > 100 µM | MCF7 > 100 µM | HCT-116 > 100 µM | SNB-19 > 100 µM | K562 > 100 µM | SF-295 > 100 µM | Hs-578T > 100 µM | U-251 > 100 µM | SK-MEL-5 > 100 µM | HT-29 > 100 µM | HL-60 > 100 µM | RXF 393 > 100 µM | BT-549 > 100 µM | HOP-62 > 100 µM

COc1ccc(-c2cc(O)c3cccnc3n2)cc1
inactive: SF-268 40.6 µM | TK-10 44.4 µM | IGROV-1 26.7 µM | MCF7 19 µM | SNB-19 78.5 µM | K562 25.8 µM | Hs-578T 24.9 µM | SK-MEL-2 83.8 µM | HT-29 15.7 µM | RXF 393 44.5 µM | BT-549 77.4 µM | HOP-62 44.3 µM
